# From patent US8092789B1, “Indian meal moth attractant” (The United States of America, as represented by the …, priority 2009, dated 2012)
# Tested on: Plodia interpunctella adult females
# Assay: flight tunnel bioassay of attraction (upwind progress score)
# Type: in vivo
# Design: key to Score (flight tunnel bioassay): 0.25 per quarter line crossed; final 0.25 for contacting test subject
# Details: for Score (flight tunnel bioassay): day 22 Plodia females, ten females per test, observed ten minutes, 0.25 per quarter line crossed and for contact
# Description: All tests were conducted in a clear, acrylic flight chamber 75 cm (L), 22 cm (W), 24 cm (H). Room air was pushed through the chamber with a 115 volt, 0.35 Amp motor-driven roller fan. Air speed was maintained at 0.4 m/sec. The chamber was positioned horizontally on a table in a walk-in environmental chamber maintained at 30° C. and 65% R.H. The only light was provided by a 25 Watt red filtered incandescent bulb centrally positioned 90 cm above tunnel floor and providing 9.0 Lux at the floor center.
# Insects used were laboratory reared Plodia interpuctella. Ten 4-day old adult females from a general rearing box were selected and transferred into a 7 dram screened plastic vial for each test. Tests were performed only during the first four hours of the scotophase. Test subjects consisted of either natural products held in a glass Petri dish (Kimax, 5 cm diameter) or liquid volatiles pipetted onto a filter paper disc (Whatman #3, 2.3 cm) held off the floor by a plastic disc (5 cm diameter). These were placed upwind. A test began when the vial containing the moths was placed on the floor down-wind and the lid of the vial was removed. Distance between vial and test material was 62 cm. […] A final 0.25 was scored for actually contacting the test subject. Individual moths were tested only once.
# Volatiles from natural products were collected for twenty-four hours by passing commercial, compressed nitrogen through a 150 cm^3 glass collection chamber (Analytical Research Systems) connected by tubing to an inert filter trap of 20 mg SuperQ (Alltech Associates). The collected volatiles were eluted with 150 ul dichloromethane and then bioassayed in the flight tunnel and analyzed by GC-MS. The SuperQ filter traps were rinsed with 200 ul dichloromethane immediately before each use.
SMILES,Score (flight tunnel bioassay) (Table 1),Score (flight tunnel bioassay) (Table 2),"attractiveness alone (dilutions in dichloromethane, FIG. 3)"
C=CC(=C)CCC=C(C)C [myrcene],2.95,2.95,–
CCCCCCCCCCC [undecane],–,–,unattractive alone
CC1(C)C2CCC1(C)C(O)C2 (stereo not drawn) [borneol],2.83,2.83,–
CCC/C=C/CO [trans-2-hexen-1-ol],3.00,3.00,–
CCOc1cc(C=O)ccc1O [ethyl vanillin],2.63,2.63,–
CCCCCC=CCCC(=O)OCC [ethyl 4-decenoate],3.50,3.50,–
CCCCCCCC(=O)OC [methyl octanoate],2.91,2.91,–
CCCCC(C)=O [2-hexanone],3.63,3.63,–
CC1=CC[C@H]2[C@H]3[C@@H]1[C@]2(C)CC[C@H]3C(C)C [a-copaene],3.07,3.07,–
CCCCCCOC(C)=O [hexyl acetate],3.60,3.60,–
Cc1ccc(C(C)C)cc1 [cymene],3.00,3.00,–
